Results: patent EP2508186A1, “Phenoxazinones or phenothiazones as inhibitors of amyloid formation” (Max-Delbrück-Centrum für Molekulare Medizin, priority 2011, dated 2012)
Like-named read-outs stand apart in the source and are kept apart here.

Columns and labels:
Aβ42 [1] = target: T1, Aβ42 (Homo sapiens, UniProt P05067); experiment: Membrane filter retardation assay (FRA) of Aβ42 aggregation; format: biochemical
T1 construct: the amyloid-β 1-42 (Aβ42) peptide
Description: 2.1.1. Protein aggregation. For aggregation reactions, Aβ42 stock solution (1 mM in DMSO) was diluted in phosphate buffer (100 mM sodium phosphate, 10 mM NaCl, pH 7.4) to 15 µM and incubated in 1.5 ml Eppendorf tubes (Eppendorf, Germany) at 37°C. Generation of soluble Aβ42 oligomers was performed as described (Lambert, 1998). Aβ42 DMSO stock solutions were diluted in Ham's F12 medium without phenol red (Biosource) at a final peptide concentration of 100 µM, with or without test compounds. After brief vortexing, samples were incubated at 4-6°C for 24 h. […]
2.1.2. […] Aggregates retained on the filter membrane were detected using the 6E10 antibody (1 : 5.000) (Sigma, Deisenhofen, Germany), and secondary antibodies conjugated to either horseradish peroxidase or alkaline phosphatase (Promega, Germany). […] After 30 min incubation at 37°C with proteinase K, samples were denatured and analyzed by FRA.
2.2.1 Identification of small molecules that stimulate Aβ42 aggregation. In order to find chemical compounds that promote Aβ42 amyloidogenesis, a membrane filter retardation assay (FRA) was established that allows the identification of large, insoluble protein aggregates, while monomers and small, soluble oligomers are not detected (Fig. 1). […]

Aβ42 [2] = target: T1, Aβ42; experiment: Circular dichroism (CD) spectroscopy of Aβ42 β-sheet formation; format: biochemical; conditions: Aβ42 15 µM, phosphate buffer
From the text: Therefore, we investigated whether 04 treatment influences the structure of Aβ42 amyloid fibrils using circular dichroism (CD) spectroscopy (Ehrnhoefer, 2008).
Next, the conversion of unstructured Aβ42 monomers into β-sheet-rich early aggregates was investigated. The change in CD signal at 218 nm over the course of 3,000 s was monitored for 04-treated and untreated Aβ42 peptides.
A monoexponential data fit yielded a time constant of τ = 150 ± 40 s for O4-treated samples, while a time constant of τ = 350 ± 30 s was obtained for untreated samples.

Aβ42 oligomers = target: T2, Aβ42 oligomers (Homo sapiens, UniProt P05067); experiment: Colorimetric dot blot binding assay on nitrocellulose membrane; conditions: for Kd: 04 0.4-200 µM, 15 min, read-out: apparent dissociation constant
T2 construct: the amyloid-β 1-42 (Aβ42) peptide
T2 sequence (P05067 672-713 limits assumed): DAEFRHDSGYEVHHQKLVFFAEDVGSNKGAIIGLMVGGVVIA
Description: 2.2.4. 04 converts small, unstable Aβ42 oligomers into larger SDS-stable protein aggregates. To examine whether 04 converts small Aβ42 oligomers into larger amyloid fibrils, we first tested whether the compound can bind to different types of preformed aggregate species. Peptide preparations highly enriched in Aβ42 monomers (Ehrnhoefer, 2008), spherical oligomers (Ma, 2006) or large amyloid fibrils (Ehrnhoefer, 2008) were produced and incubated with 04 for 15 minutes at room temperature. Then, samples were spotted onto a nitrocellulose membrane and after washing with buffer (non-denaturing conditions) 04 binding was examined. As 04 is a dye and blue in color its binding to amyloid aggregates can be detected colorimetrically (Fig. 3c).
Binding of 04 to Aβ42 oligomers was quantified colorimetrically (Fig. 5).

[3] = target: T3, A11-reactive amyloid oligomers (Homo sapiens, UniProt P05067); experiment: Dot blot assay with conformation-specific antibody A11; format: biochemical; conditions: Aβ42 15 µM, 48 h at 37°C, 04 at 1:1 or 5:1 molar ratio
T3 construct: the amyloid-β 1-42 (Aβ42) peptide
T3 sequence (P05067 672-713 limits assumed): as above
Description: Finally, we examined the effect of 04 on potentially toxic amyloid oligomers that are recognized by the conformation-specific antibody A11 (Kayed, 2003). Soluble Aβ42 peptides were incubated in the presence and absence of 04 for 48 h at 37°C and the resulting aggregate species were analyzed by dot blot assays.

Aβ42 peptides [4] = target: T4, Aβ42 peptides (Homo sapiens, UniProt P05067); experiment: Binding to Aβ42 10-mer peptide array and short peptides; conditions: dot blot, colorimetric, n = 4
T4 construct: made in house; spotted short peptides
Description: (§1) 2.2.5. 04 binds preferentially to hydrophobic regions in Aβ42 peptides. To define potential 04 binding regions in Aβ42 peptides an array of 33 synthetic peptides representing the complete Aβ42 sequence was prepared (Beutling, 2008) and probed for an interaction with the chemical compound. Each synthetic peptide was composed of 10 amino acids, which overlapped in sequence with the next peptide by 9 residues.
(§2) We next investigated whether the position of hydrophobic amino acids in the Aβ42 peptide sequence influences 04 binding. Two short peptides containing aromatic residues were synthesized (A: KLVFFAE, aa 16-22 of Aβ42 and B: EFAVFLK, a scrambled version of A) and 04 binding was quantified colorimetrically.

Aβ42 peptides [5] = experiment: as above; conditions: 04 300 µM, 33 peptides overlapping by 9 residues, colorimetric
Description: as §1, §2

Aβ42 aggregates = target: T5, Aβ42 aggregates (Homo sapiens, UniProt P05067); experiment: Dot blot assays of Aβ42 aggregates with antibodies 4G8, 6E10 and B10; format: biochemical; conditions: Aβ42 15 µM
T5 construct: the amyloid-β 1-42 (Aβ42) peptide
T5 sequence (P05067 672-713 limits assumed): as above
Description: 2.2.6. 04-generated amyloid fibrils have altered surface properties. We next examined whether 04 treatment influences the morphology of mature amyloid fibrils. […] of chemical compound and the resulting aggregates were analyzed with dot blot assays using the monoclonal antibodies 6E10 and 4G8, which specifically recognize amino acids 4-9 and 18-22 in Aβ42 peptides, respectively (Kim, 1988).
To confirm the observation that 04 alters surface properties of Aβ42 aggregates, we also examined whether 04-generated Aβ42 aggregates can be detected with the conformation specific antibody B10, which preferentially recognizes mature, β-sheet-rich amyloid fibrils and protofibrils, while monomers and low molecular oligomers are less efficiently detected (Habicht, 2007).

T1 sequence (P05067 672-713 limits assumed): as above

O=c1cc2oc3cc(O)c(-c4ccc(O)cc4O)cc3nc-2cc1-c1ccc(O)cc1O [Compound 04, 2,8-bis-(2,4-dihydroxyphenyl)-7-hydroxy-phenoxazin-3-one]
formation of SDS-stable insoluble Aβ42 aggregates (Aβ42 [1]; Aβ42 15 µM, equimolar or 5-fold molar excess of compound, detection with 6E10 antibody): promotes spontaneous assembly of Aβ42 insoluble aggregates in a concentration-dependent manner | proteinase K resistance of Aβ42 aggregates (Aβ42 [1]; aggregates generated 4 and 7 d at 37°C with or without 04 (15 µM), proteinase K 10-200 µg/ml, 30 min at 37°C): more proteinase K resistant than untreated aggregates | time constant τ of β-sheet formation (ellipticity at 218 nm) (Aβ42 [2]; 04 75 µM, 37°C, monoexponential decay fit, control 350 ± 30 nm): 150 ± 40 s | time constant τ of β-sheet formation (CD signal at 218 nm) (Aβ42 [2]; 04 75 µM, 37°C, monoexponential fit, untreated 350 ± 30 s): 150 ± 40 s | CD spectra of Aβ42 fibrils (Aβ42 [2]; equimolar 04, 37°C): CD spectra characteristic of β-sheet-rich amyloid structures | Kd (Aβ42 oligomers; Aβ42 oligomers equivalent to monomer concentration 3 µM): 50 ± 2 µM | Kd (Aβ42 oligomers; Aβ42 oligomers equivalent to monomer concentration 6 µM): 25 ± 1 µM | Kd (Aβ42 oligomers; Aβ42 oligomers equivalent to monomer concentration 12 µM): 3.5 ± 0.1 µM | 04 staining of Aβ42 monomers, oligomers and fibrils (Aβ42 oligomers; Aβ42 preparations 15 µM, 04 3, 15 and 75 µM, 15 min at room temperature, non-denaturing wash): readily stains oligomeric and fibrillar Aβ42 aggregates, while monomers were less efficiently detected | Hill coefficient n (Aβ42 oligomers; cooperative binding model fitted to the oligomer binding data): 4 | A11-reactive oligomers [3]: detected in the absence but not in the presence of the chemical compound | binding to peptide A (KLVFFAE, aa 16-22) and scrambled peptide B (EFAVFLK) (Aβ42 peptides [4]): readily interacts with peptide A but not with the control peptide B | binding to 10-mer peptide array of the Aβ42 sequence (Aβ42 peptides [5]): most strongly interacts with Aβ42 peptides, which contain non-polar, hydrophobic amino acids | B10 antibody binding to Aβ42 aggregates (Aβ42 aggregates; 48 h at 37°C, increasing concentrations of 04): reduced B10 binding ability | recognition of Aβ42 aggregates by 4G8 antibody (Aβ42 aggregates; 5 d at 37°C with or without 04, no such effect with 6E10): less efficiently recognized by the 4G8 antibody
